Test results published in publication PMC13252604, “First Generation Proteolysis Targeting Chimeras (PROTACs) for the Treatment of Progeria” (Advanced Science, 2026).

Test system: HGADFN167 Lmna^G608G/G608G fibroblasts
Assay: Immunoblot and immunocytofluorescence analysis in human progeroid cells (Ki‐67, nuclei, pH2AX, H3K9Me3)
Format: cell-based
Settings: HGADFN167, 5 µM, 20 days
Description: FIGURE 6 (A) Representative cropped immunoblots and progerin quantification in human Lmna^G608G/G608G fibroblasts. MW, molecular weight (in kDa) markers. […] (B) PROTAC 2 increases cell proliferation (upper panels) and decreases the number of misshapen nuclei (lower panels). White arrows highlight selected misshapen nuclei. (C) PROTAC 2 decreases senescence‐associated β‐galactosidase (SA‐βgal) activity, interleukin (IL) 6, p16 and p21 senescent markers. Bar graphs show mean±sem of 2 (SA‐βgal and p21) or 3 (IL‐6 and p16) independent experiments performed in triplicate. (D) PROTAC 2 decreases phosphorylated histone 2AX (pH2AX) and increases trimethylated histone 3 (H3K9Me3) levels. (E) PROTAC 2 increases the oxygen consumption rate (OCR), ATP production and the number of healthy mitochondria in human progeroid cells. Bar graphs show mean±sem of 2 independent experiments performed in duplicate. In all cases, HGADFN167 Lmna^G608G/G608G (G608G) or HGFDFN168 Lmna^+/+ (WT) fibroblasts, provided by the Progeria Research Foundation, were incubated with vehicle or 2 (5 µM) for 20 days. Data were analysed using one‐way ANOVA followed by Dunnett's post–hoc test vs vehicle (panel A) or vs G608G cells (panels B‐E). ^*, p < 0.05; ^**, p < 0.01; ^***, p < 0.001; ^****, p < 0.0001. Microscopy images are representative of 2 independent experiments and corresponding bar graphs show mean±sem of 4 fields from 2 independent experiments. […]
compound exposure. Then, cells were incubated with compound of interest or DMSO for the appropriate time and lysed with cold laemmli buffer (50 mM Tris-HCl pH 7.4, 150 mM NaCl, 1% Igepal) with a mixture of protease and phosphatase inhibitors (1 mM PMSF, 10 mM NaF, 0.3 mg/mL CalyculinA, 1 mM sodium orthovanadate, 10 mM β-glycerol-phosphate; all from Sigma-Aldrich and complete protease inhibitor cocktail, from Roche). Proteins were denatured at 95 ᵒC for 5 min and the lysates were immediately used or stored at -20 ᵒC until use. Samples were analysed by electrophoresis in polyacrylamide gels (All Kd SDS-PAGE, BioRad) and the proteins transferred to nitrocellulose membranes (GE Healthcare, Amersham). After 1 h of incubation in blocking buffer [20 mM Tris pH 7.6, 150 mM NaCl and 0.1% Tween-20 (TBS-T) with 5% of bovine serum albumin (BSA)], blots were incubated overnight at 4 ᵒC with the corresponding primary antibody: anti-phospho-histone 2AX (Ser139) (EMD Millipore, […]
GAPDH (Cell Signaling, 2118S, 1:5000) and anti-actin (Santa Cruz Biotechnology, sc-376248, 1:500) as antibodies for loading control. Then, membranes were washed (3x10 min) with TBS-T and incubated with the corresponding secondary antibody conjugated with peroxidase (Sigma- Aldrich) for 1 h at rt. […] The bands were quantified by densitometry using the […]

With `CC1(C)Oc2cc3oc(=O)ccc3cc2C[C@@H]1OC(=O)CCCCCNc1cccc2c1C(=O)N(C1CCC(=O)NC1=O)C2=O` (stereo partly shown) [compound 2] the H3K9Me3 levels was “significantly increased H3K9Me3 levels”, the “cell proliferation (Ki‐67 expression)” value was “enhances cell proliferation” and the “number of misshapen nuclei” value was “significantly reduced the number of misshapen nuclei”. The pH2AX levels was “reduced pH2AX levels to those observed in WT cells”.
